The test system of the assay is mice with chronic alcohol-induced gastric mucosal damage. Put plainly: Chronic alcohol-induced gastric mucosal damage mice model (60% ethanol intragastrically): body weight, survival, HE staining of gastric tissue. It counts as in vivo, Male KM mice. Particulars: for body weight of the mice at the end of the experiment, compared with Model: extracts 10 mg/mL, Lansoprazole 0.35 mg/mL, 0.3 mL intragastrically once daily for 2 weeks, 60% ethanol in second week, P<0.05 where significant. As for the experimental part:
Male KM mice, SPF grade, body weight of 18-22 g, 5-6 weeks of age, feeding temperature and humidity: 23±1° C. and 55±10%; 12 h day-and-night discontinuous illumination was used; conditions of the raising room were always kept stable, thereby ensuring the reliability of the test result. The mice took food and drank water freely.
Male KM mice were adaptively raised for 7 d, and then randomly divided into the following 8 groups: • Blank control group 1: Control • Model control group 1: Model • Administration group 1: Positive • Administration group 2: HEF • Administration group 3: HEFP • Administration group 4: HEFX • Administration group 5: HESP • Administration group 6: HESX.
There were 14 mice in the Model group, and 13 mice in the other groups, and the mice were fed with an ordinary fodder.
Experimental duration is 2 weeks:
First week: the mice in each administration group were prophylactically administered intragastrically once every day; and its administration concentration is shown in Table 9; meanwhile, the mice in the Control and Model groups were administered 0.3 mL of pure water intragastrically.
Second week: the mice in the Model and each administration groups were administered 0.3 mL of 60% ethanol intragastrically once per day for modeling, to induce a chronic alcohol-induced gastric mucosal damage mice model, and modeling was performed for a week; meanwhile, the mice in the administration groups were administered (administration concentration and dosage were the same as those in the first week), the protective effects of different administration groups on gastric mucosa were observed.
Administration was stopped the night before the end of the experiment; the mice were not allowed to take food, but allowed to drink water. Eyeballs were picked out and blood was collected, and then the mice were killed by cervical dislocation; gastric tissues were taken and placed into 4% paraformaldehyde stationary solution for immobilization, for use in pathological examination.

Regarding `Cc1c(OCC(F)(F)F)ccnc1C[S+]([O-])c1nc2ccccc2[nH]1` (stereo not drawn) [Positive, Lansoprazole], the “body weight of the mice at the end of the experiment, compared with Model” value (FIG. 5A) was “significantly greater than that in the Model” and the “body weight of the mice at the end of the experiment, compared with Model” value (FIG. 5A, listed as Lansoprazole) is “may increase the body weight”. The “death count of the mice at the end of the experiment” value (same regimen, compared with other groups, FIG. 5B) is listed as “obviously higher than that in other groups”. Besides, under “same regimen, gastric tissue at end of experiment, FIG. 6”, the “HE staining of mice gastric tissues (gastric mucosa morphology)” value was “necrosis exfoliation of partial mucosal epithelial cells of the gastric tissue, loose arrangement of partial cells and infiltration of a small amount of inflammatory cells”. Also, the “survival rate of the mice at the end of the experiment, compared with Model” value (same regimen, survival curve FIG. 5B) is reported as “slightly higher than that of the Model group”. The “body weight of the mice during modeling, compared with Control” value (second week, 60% ethanol modeling, P<0.01, FIG. 5A) is reported as “lower than that in the Control”.

Values taken from patent US20250333805A1, “HERICIUM ERINACEUS STRAIN HE015, MOLECULAR MARKERS AND USES THEREOF” (INFINITUS (CHINA) COMPANY LTD., priority 2024, published 2025).
